Test results taken from US10577378B2, “EIF4A-inhibiting compounds and methods related thereto” (eFFECTOR Therapeutics, Inc., priority 2015, dated 2020).

The compounds below were run on MDA-MB-231 human breast cancer cells (assay: Cell proliferation assay (CellTiter-Glo, 72 hours treatment)). Settings: Homo sapiens, MDA-MB-231, 72 h, read-out: MDA-MB-231 cell proliferation assay (IC50).
Assay type: cell-based
Method in brief: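 MDA-MB-231 cells seeded at 2,500 cells/well, treated next day with compound or DMSO vehicle for 72 h at 37 °C. Proliferation read by CellTiter-Glo; IC50 from sigmoidal non-linear regression, binned as +++ (<100 nM), ++ (100–1000 nM), + (>1000 nM).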
Work on `COc1cncc2c1[C@]1(O)[C@@H](CN)C[C@@H](c3ccccc3)[C@]1(c1ccc(Br)cc1)O2` (racemic) [172F, Rac-(4bR,5R,7S,7aR)-5-(aminomethyl)-7a-(4-bromophenyl)-4-methoxy-7-phenyl-5,6,7,7a-tetrahydro-4bH-cyclopenta[4,5]furo[2,3-c]pyridin-4b-ol] yielded an IC50 of less than 100 nM.

Same assay, conditions: Homo sapiens; MDA-MB-231 cells, 72 hours at 37° C., CellTiter-Glo; read-out: MDA-MB-231 cell proliferation assay (IC50)
`O=C1N[C@H]2[C@@H](O1)[C@@]1(O)c3ncc(Cl)cc3O[C@@]1(c1ccc(Br)cc1)[C@@H]2c1ccccc1` (racemic) [53F, Rac-(3aR,3bS,8aR,9R,9aR)-8a-(4-bromophenyl)-6-chloro-3b-hydroxy-9-phenyl-1,3a,3b,8a,9,9a-hexahydro-2H-oxazolo[4″,5″:4′,5′]cyclopenta[1′,2′:4,5]furo[3,2-b]pyridin-2-one] was tested, and the IC50 was less than 100 nM. `CCN(CC)C[C@H]1[C@@H](O)[C@@]2(O)c3c(cc(C#N)nc3OC)O[C@@]2(c2ccc(Br)cc2)[C@@H]1c1ccccc1` (racemic) [159Fa, Rac-(5aR,6S,7S,8R,8aS)-5a-(4-bromophenyl)-7-((diethylamino)methyl)-8,8a-dihydroxy-1-methoxy-6-phenyl-5a,7,8,8a-tetrahydro-6H-cyclopenta[4,5]furo[3,2-c]pyridine-3-carbonitrile] gave an IC50 of less than 100 nM. `COc1nc(C#N)cc2c1[C@]1(O)[C@H](O)[C@H](CN3CC(C(F)F)C3)[C@@H](c3ccccc3)[C@]1(c1ccc(C#N)cc1)O2` (racemic) [218F, Rac-(5aR,6S,7S,8R,8aS)-5a-(4-cyanophenyl)-7-((3-(difluoromethyl)azetidin-1-yl)methyl)-8,8a-dihydroxy-1-methoxy-6-phenyl-5a,7,8,8a-tetrahydro-6H-cyclopenta[4,5]furo[3,2-c]pyridine-3-carbonitrile] was tested, and the IC50 was less than 100 nM. `COc1nc(C#N)cc2c1[C@]1(O)[C@H](O)[C@H](CN3CCC(F)CC3)[C@@H](c3ccccc3)[C@]1(c1ccc(Br)cc1)O2` (racemic) [156Fa, Rac-(5aR,6S,7S,8R,8aS)-5a-(4-bromophenyl)-7-((4-fluoropiperidin-1-yl)methyl)-8,8a-dihydroxy-1-methoxy-6-phenyl-5a,7,8,8a-tetrahydro-6H-cyclopenta[4,5]furo[3,2-c]pyridine-3-carbonitrile] showed an IC50 of less than 100 nM. For `O[C@H]1[C@H](Sc2ccccn2)[C@@H](c2ccccc2)[C@]2(c3ccc(Br)cc3)Oc3cc(Cl)cnc3[C@]12O` (racemic) [160Fb, Rac-(5aR,6S,7R,8R,8aS)-5a-(4-bromophenyl)-3-chloro-6-phenyl-7-(pyridin-2-ylthio)-5a,6,7,8-tetrahydro-8aH-cyclopenta[4,5]furo[3,2-b]pyridine-8,8a-diol], the IC50 was greater than 1000 nM. Compound `COc1cncc2c1[C@]1(O)[C@H](O)[C@H](C(=O)N3CCOCC3)[C@@H](c3ccccc3)[C@]1(c1ccc(C(F)(F)F)cc1)O2` (racemic) [281F, rac-((4bS,5R,6R,7S,7aR)-4b,5-dihydroxy-4-methoxy-7-phenyl-7a-(4-(trifluoromethyl)phenyl)-4b,6,7,7a-tetrahydro-5H-cyclopenta[4,5]furo[2,3-c]pyridin-6-yl)(morpholino)methanone] has an IC50 of 100 to 1000 nM. `COc1nc(Cl)cc2c1[C@]1(O)[C@H](O)[C@H](CN3CCCC3)[C@@H](c3ccccc3)[C@]1(c1ccc(C#N)cc1)O2` (racemic) [158Fb, Rac-4-((5aR,6S,7S,8R,8aS)-3-chloro-8,8a-dihydroxy-1-methoxy-6-phenyl-7-(pyrrolidin-1-ylmethyl)-6,7,8,8a-tetrahydro-5aH-cyclopenta[4,5]furo[3,2-c]pyridin-5a-yl)benzonitrile] showed an IC50 of less than 100 nM. Work on `COc1cncc2c1[C@]1(O)[C@H](O)[C@H](S(C)(=O)=O)[C@@H](c3ccccc3)[C@]1(c1ccc(Br)cc1)O2` (racemic) [101F, rac-(4bS,5S,6R,7S,7aR)-7a-(4-bromophenyl)-4-methoxy-6-(methylsulfonyl)-7-phenyl-5,6,7,7a-tetrahydro-4bH-cyclopenta[4,5]furo[2,3-c]pyridine-4b,5-diol] yielded an IC50 of 100 to 1000 nM. Work on `COc1cncc2c1[C@]1(O)[C@H](O)[C@H](CN3CC4(COC4)C3)[C@@H](c3ccccc3)[C@]1(c1ccc(C#N)cc1)O2` (racemic) [236F, Rac-4-((4bS,5R,6S,7S,7aR)-6-((2-oxa-6-azaspiro[3.3]heptan-6-yl)methyl)-4b,5-dihydroxy-4-methoxy-7-phenyl-4b,5,6,7-tetrahydro-7aH-cyclopenta[4,5]furo[2,3-c]pyridin-7a-yl)benzonitrile] yielded an IC50 of 100 to 1000 nM. With `CNC[C@H]1[C@@H](O)[C@@]2(O)c3c(cc(C#N)nc3OC)O[C@@]2(c2ccc(C#N)cc2)[C@@H]1c1ccccc1` (racemic) [225F, Rac-(5aR,6S,7S,8R,8aS)-5a-(4-cyanophenyl)-8,8a-dihydroxy-1-methoxy-7-((methylamino)methyl)-6-phenyl-5a,7,8,8a-tetrahydro-6H-cyclopenta[4,5]furo[3,2-c]pyridine-3-carbonitrile] the IC50 was less than 100 nM. Compound `COc1cncc2c1[C@]1(O)[C@H](O)[C@H](CN(C)C)[C@@H](c3ccccc3)[C@]1(c1ccc(Cl)cc1)O2` (single isomer, unassigned) [272F] has an IC50 of less than 100 nM. `COc1cncc2c1[C@]1(O)[C@@H](CN)C[C@@H](c3ccccc3)[C@]1(c1ccc(C#N)cc1)O2` (racemic) [173F, Rac-4-((4bR,5R,7S,7aR)-5-(aminomethyl)-4b-hydroxy-4-methoxy-7-phenyl-4b,5,6,7-tetrahydro-7aH-cyclopenta[4,5]furo[2,3-c]pyridin-7a-yl)benzonitrile] gave an IC50 of less than 100 nM. `COc1cncc2c1[C@]1(O)[C@H](O)[C@H](CN3CCC3)[C@@H](c3ccccc3)[C@]1(c1ccc(C#N)cc1)O2` (racemic) [71F, Rac-4-((4bS,5R,6S,7S,7aR)-6-(azetidin-1-ylmethyl)-4b,5-dihydroxy-4-methoxy-7-phenyl-4b,5,6,7-tetrahydro-7aH-cyclopenta[4,5]furo[2,3-c]pyridin-7a-yl)benzonitrile] gave an IC50 of less than 100 nM. `COc1cncc2c1[C@]1(O)[C@H](O)[C@H](CN3CCN(C)CC3)[C@@H](c3ccccc3)[C@]1(c1ccc(C#N)cc1)O2` (racemic) [68F, Rac-4-((4bS,5R,6S,7S,7aR)-4b,5-dihydroxy-4-methoxy-6-((4-methylpiperazin-1-yl)methyl)-7-phenyl-4b,5,6,7-tetrahydro-7aH-cyclopenta[4,5]furo[2,3-c]pyridin-7a-yl)benzonitrile] showed an IC50 of 100 to 1000 nM. In the case of `COc1nc(Cl)cc2c1[C@]1(O)[C@H](O)[C@H](CN(C)C)[C@@H](c3ccccc3)[C@]1(c1ccc(C(F)F)cc1)O2` (racemic) [143F, Rac-(5aR,6S,7S,8R,8aS)-3-chloro-5a-(4-(difluoromethyl)phenyl)-7-((dimethylamino)methyl)-1-methoxy-6-phenyl-5a,6,7,8-tetrahydro-8aH-cyclopenta[4,5]furo[3,2-c]pyridine-8,8a-diol], the IC50 is reported as less than 100 nM. `CN(C)C(=O)[C@H]1[C@@H](O)[C@@]2(O)c3ncc(Cl)cc3O[C@@]2(c2ccc(OC(F)(F)F)cc2)[C@@H]1c1ccccc1` (single isomer, unassigned) [17F] was tested, and the IC50 was 100 to 1000 nM. `COc1nc(C#N)cc2c1[C@]1(O)[C@H](O)[C@H](CN(C)C)[C@@H](c3ccccc3)[C@]1(c1ccc(C(F)(F)F)cc1)O2` (single isomer, unassigned) [147F] was tested, and the IC50 was less than 100 nM. Work on `COc1nc(Cl)cc2c1[C@]1(O)[C@@H](CN(C)C)[C@H](CO)[C@@H](c3ccccc3)[C@]1(c1ccc(Br)cc1)O2` (racemic) [209F, Rac-(5aR,6S,7R,8R,8aR)-5a-(4-bromophenyl)-3-chloro-8-((dimethylamino)methyl)-7-(hydroxymethyl)-1-methoxy-6-phenyl-5a,6,7,8-tetrahydro-8aH-cyclopenta[4,5]furo[3,2-c]pyridin-8a-ol] yielded an IC50 of less than 100 nM. In the case of `COc1cncc2c1[C@]1(O)[C@@H](CN)[C@H](CO)[C@@H](c3ccccc3)[C@]1(c1ccc(Br)cc1)O2` (racemic) [170F, Rac-(4bR,5R,6R,7S,7aR)-5-(aminomethyl)-7a-(4-bromophenyl)-6-(hydroxymethyl)-4-methoxy-7-phenyl-5,6,7,7a-tetrahydro-4bH-cyclopenta[4,5]furo[2,3-c]pyridin-4b-ol], the IC50 is reported as less than 100 nM. `OC[C@H]1C[C@@H](c2ccccc2)[C@]2(c3ccc(Br)cc3)Oc3cc(Cl)cnc3[C@]12O` (racemic) [162F, Rac-(5aR,6S,8R,8aR)-5a-(4-bromophenyl)-3-chloro-8-(hydroxymethyl)-6-phenyl-5a,6,7,8-tetrahydro-8aH-cyclopenta[4,5]furo[3,2-b]pyridin-8a-ol] gave an IC50 of 100 to 1000 nM. `COc1cncc2c1[C@]1(O)[C@H](O)[C@H](CNCc3ccccc3)[C@@H](c3ccccc3)[C@]1(c1ccc(C#N)cc1)O2` (racemic) [77F, Rac-4-((4bS,5R,6S,7S,7aR)-6-((benzylamino)methyl)-4b,5-dihydroxy-4-methoxy-7-phenyl-4b,5,6,7-tetrahydro-7aH-cyclopenta[4,5]furo[2,3-c]pyridin-7a-yl)benzonitrile] gave an IC50 of less than 100 nM. Compound `COc1cncc2c1[C@]1(O)[C@@H](CNCc3ccnn3C)[C@H](CO)[C@@H](c3ccccc3)[C@]1(c1ccc(C#N)cc1)O2` (racemic) [204F, Rac-4-((4bR,5R,6R,7S,7aR)-4b-hydroxy-6-(hydroxymethyl)-4-methoxy-5-((((1-methyl-1H-pyrazol-5-yl)methyl)amino)methyl)-7-phenyl-4b,5,6,7-tetrahydro-7aH-cyclopenta[4,5]furo[2,3-c]pyridin-7a-yl)benzonitrile] has an IC50 of less than 100 nM. In the case of `O[C@]12c3ncc(Cl)cc3O[C@@]1(c1ccc(Br)cc1)[C@H](c1ccccc1)C[C@@H]2CN1CCOCC1` (racemic) [177F, rac-(5aR,6S,8R,8aR)-5a-(4-bromophenyl)-3-chloro-8-(morpholinomethyl)-6-phenyl-5a,6,7,8-tetrahydro-8aH-cyclopenta[4,5]furo[3,2-b]pyridin-8a-ol], the IC50 is reported as 100 to 1000 nM. In the case of `COc1cncc2c1[C@]1(O)[C@@H]3OC(=O)C[C@@H]3[C@@H](c3ccccc3)[C@]1(c1ccc(Br)cc1)O2` (racemic) [275F, Rac-(3aR,4S,4aR,9bS,9cR)-4a-(4-bromophenyl)-9b-hydroxy-9-methoxy-4-phenyl-3,3a,4,4a,9b,9c-hexahydro-2H-furo[3″,2″:4′,5′]cyclopenta[1′,2′:4,5]furo[2,3-c]pyridin-2-one], the IC50 is reported as less than 100 nM.
